In patent publication US20260315606A1, “NOVEL COMPOUNDS CAPABLE OF INDUCING OSTEOGENIC DIFFERENTIATION” (AJOU UNIVERSITY INDUSTRY-ACADEMIC COOPERATION FOUNDATION, priority 2023, published 2026):

Columns and labels:
MDM2 = biological target: T1, MDM2 (Homo sapiens, UniProt Q00987); assay: Western blot (SDS-PAGE) of intracellular MDM2 protein degradation in hDPSCs; type: cell-based; conditions: FIG. 2; selected treatment concentrations not given
T1 construct: degradation by nutlin-based CRBN-recruiting PROTACs, Western blot
Method: Human dental pulp stem cell lines (hDPSCs) were treated with 14 types of synthesized MDM2-PROTACs (10 μM) for 1 hour and Western blot analysis using SDS-PAGE gel was performed to evaluate the intracellular MDM2 protein degradation capacity.

p53 = p53 activation in selection of compounds (FIG. 2); type: cell-based, human; conditions: selected treatment concentrations not given

T1 sequence (Q00987 whole entry): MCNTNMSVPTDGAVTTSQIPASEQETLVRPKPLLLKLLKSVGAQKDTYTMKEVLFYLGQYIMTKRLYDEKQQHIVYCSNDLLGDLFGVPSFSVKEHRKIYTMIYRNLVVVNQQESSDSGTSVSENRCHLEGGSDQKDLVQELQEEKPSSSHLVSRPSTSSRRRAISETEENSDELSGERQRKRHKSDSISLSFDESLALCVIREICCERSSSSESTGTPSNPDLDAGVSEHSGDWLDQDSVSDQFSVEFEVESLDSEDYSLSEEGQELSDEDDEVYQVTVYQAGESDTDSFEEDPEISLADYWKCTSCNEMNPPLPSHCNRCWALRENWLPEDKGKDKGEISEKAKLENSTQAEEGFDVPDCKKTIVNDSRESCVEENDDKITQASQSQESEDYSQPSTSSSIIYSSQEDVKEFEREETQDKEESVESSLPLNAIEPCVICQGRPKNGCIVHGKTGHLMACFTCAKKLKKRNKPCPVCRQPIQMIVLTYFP
T1 sequence (Q96SW2 whole entry partner): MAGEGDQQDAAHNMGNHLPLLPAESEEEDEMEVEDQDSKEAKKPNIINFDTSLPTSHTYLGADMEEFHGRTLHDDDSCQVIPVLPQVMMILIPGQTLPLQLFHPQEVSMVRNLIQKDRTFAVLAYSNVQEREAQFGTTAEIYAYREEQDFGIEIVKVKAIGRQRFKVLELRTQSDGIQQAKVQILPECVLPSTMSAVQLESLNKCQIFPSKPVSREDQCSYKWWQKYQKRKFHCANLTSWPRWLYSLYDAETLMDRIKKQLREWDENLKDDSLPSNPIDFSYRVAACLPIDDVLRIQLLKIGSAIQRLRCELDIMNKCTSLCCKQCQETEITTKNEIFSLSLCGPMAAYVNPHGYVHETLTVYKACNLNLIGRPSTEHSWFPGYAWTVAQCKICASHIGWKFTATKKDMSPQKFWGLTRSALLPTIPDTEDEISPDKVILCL

| Substance | MDM2 degradation (selected compounds) (MDM2) | p53 activation (selected compounds) (p53) |
| --- | --- | --- |
| 2-(4-(cis-4,5-bis(4-chlorophenyl)-2-(2-isopropoxy-4-methoxyphenyl)-4,5-dihydro-1H-imidazole-1-carbonyl)-2-oxopiperazin-1-yl)-N-(8-((2-(2,6-dioxo-opiperidin-3-yl)-1,3-dioxoisoindolin-4-yl)oxy)octyl)acetamide [Compound 6b] | effectively degrade MDM2 | activate p53 |
| 2-(4-(cis-4,5-bis(4-chlorophenyl)-2-(2-isopropoxy-oxopiperazin-1-yl)-N-(9-(2-(2,6-dioxopiperidin-3-yl)-1,3-dioxoisoindolin-4-yl)non-8-yn-1-yl) acetamide [Compound 16b] | effectively degrade MDM2 | activate p53 |
